ChEMBL document CHEMBL3124838, “Discovery of 6-aryl-azabenzimidazoles that inhibit the TBK1/IKK-ε kinases” (Bioorg Med Chem Lett, 2014)
pIC50: −log10 of the molar value.

Columns and labels:
[1] = molecular target: Insulin-like growth factor 1 receptor (Homo sapiens) (UniProt P08069); experiment: Inhibition of human IGF-1R assessed as residual activity at 1 uM relative to control
[2] = molecular target: PI3K p110 beta/p85 alpha (Homo sapiens) (UniProt P27986+P42338); experiment: Inhibition of human PI3K p110beta/p85alpha assessed as residual activity at 1 uM relative to control; type: protein-complex assay
Sequence of PI3K p110 beta/p85 alpha (Homo sapiens) (P27986 2-724 limits assumed): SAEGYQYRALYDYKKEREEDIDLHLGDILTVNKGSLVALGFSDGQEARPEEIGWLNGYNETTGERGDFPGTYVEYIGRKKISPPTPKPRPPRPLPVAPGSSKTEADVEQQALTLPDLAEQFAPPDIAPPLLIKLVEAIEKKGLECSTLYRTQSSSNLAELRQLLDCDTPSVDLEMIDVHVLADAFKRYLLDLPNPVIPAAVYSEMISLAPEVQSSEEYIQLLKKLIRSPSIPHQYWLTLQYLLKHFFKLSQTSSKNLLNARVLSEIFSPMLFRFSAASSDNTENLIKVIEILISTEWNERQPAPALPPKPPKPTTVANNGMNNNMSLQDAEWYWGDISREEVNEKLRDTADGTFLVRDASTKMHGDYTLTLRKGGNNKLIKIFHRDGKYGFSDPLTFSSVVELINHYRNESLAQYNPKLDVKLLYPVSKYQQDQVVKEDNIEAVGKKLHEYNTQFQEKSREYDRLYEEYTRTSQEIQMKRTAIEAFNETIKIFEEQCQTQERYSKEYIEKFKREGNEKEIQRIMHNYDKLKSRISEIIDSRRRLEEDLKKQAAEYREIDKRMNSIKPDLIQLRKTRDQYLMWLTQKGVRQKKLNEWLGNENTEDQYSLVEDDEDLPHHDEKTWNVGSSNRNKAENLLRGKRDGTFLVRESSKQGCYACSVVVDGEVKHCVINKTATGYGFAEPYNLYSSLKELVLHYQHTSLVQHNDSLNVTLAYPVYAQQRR
Sequence of PI3K p110 beta/p85 alpha (Homo sapiens) (P42338 whole entry partner): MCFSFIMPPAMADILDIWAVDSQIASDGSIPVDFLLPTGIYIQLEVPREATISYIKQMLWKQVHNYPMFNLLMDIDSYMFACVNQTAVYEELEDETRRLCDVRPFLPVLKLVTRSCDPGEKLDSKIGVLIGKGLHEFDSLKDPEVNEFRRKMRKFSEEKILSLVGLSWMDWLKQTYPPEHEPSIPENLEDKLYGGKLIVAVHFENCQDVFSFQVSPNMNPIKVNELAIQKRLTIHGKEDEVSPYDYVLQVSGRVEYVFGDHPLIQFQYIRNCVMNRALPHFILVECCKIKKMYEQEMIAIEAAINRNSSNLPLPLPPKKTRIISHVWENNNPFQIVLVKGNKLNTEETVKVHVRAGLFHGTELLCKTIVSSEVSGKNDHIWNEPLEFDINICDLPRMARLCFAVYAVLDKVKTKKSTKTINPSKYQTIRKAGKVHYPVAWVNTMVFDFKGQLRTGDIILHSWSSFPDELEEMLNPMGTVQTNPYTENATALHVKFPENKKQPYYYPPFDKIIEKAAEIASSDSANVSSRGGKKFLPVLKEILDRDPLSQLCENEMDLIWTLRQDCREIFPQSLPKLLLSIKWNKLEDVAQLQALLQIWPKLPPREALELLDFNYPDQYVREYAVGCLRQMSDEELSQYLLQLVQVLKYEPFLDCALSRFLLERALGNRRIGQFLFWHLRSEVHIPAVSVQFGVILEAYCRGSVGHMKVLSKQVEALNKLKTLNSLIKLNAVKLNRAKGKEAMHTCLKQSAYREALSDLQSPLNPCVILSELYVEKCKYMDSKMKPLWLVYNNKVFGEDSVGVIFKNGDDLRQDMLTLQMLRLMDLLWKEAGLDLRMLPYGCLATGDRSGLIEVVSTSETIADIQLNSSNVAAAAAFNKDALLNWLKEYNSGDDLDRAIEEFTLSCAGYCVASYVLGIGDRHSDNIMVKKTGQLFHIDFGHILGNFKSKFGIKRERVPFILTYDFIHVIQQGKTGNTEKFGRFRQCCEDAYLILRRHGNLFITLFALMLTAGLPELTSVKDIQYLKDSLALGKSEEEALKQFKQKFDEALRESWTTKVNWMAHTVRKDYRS

[3] = molecular target: Ribosomal protein S6 kinase beta-1 (Homo sapiens) (UniProt P23443); experiment: Inhibition of human p70S6K assessed as residual activity at 1 uM relative to control
[4] = molecular target: Proto-oncogene tyrosine-protein kinase Src (Homo sapiens) (UniProt P12931); experiment: Inhibition of human cSRC assessed as residual activity at 1 uM relative to control
[5] = molecular target: Fibroblast growth factor receptor 3 (Homo sapiens) (UniProt P22607); experiment: Inhibition of human FGFR3 assessed as residual activity at 1 uM relative to control
[6] = molecular target: T1, Ephrin type-B receptor 4 (Homo sapiens) (UniProt P54760); experiment: Inhibition of human EPHB4 assessed as residual activity at 1 uM relative to control
T1 sequence (whole entry): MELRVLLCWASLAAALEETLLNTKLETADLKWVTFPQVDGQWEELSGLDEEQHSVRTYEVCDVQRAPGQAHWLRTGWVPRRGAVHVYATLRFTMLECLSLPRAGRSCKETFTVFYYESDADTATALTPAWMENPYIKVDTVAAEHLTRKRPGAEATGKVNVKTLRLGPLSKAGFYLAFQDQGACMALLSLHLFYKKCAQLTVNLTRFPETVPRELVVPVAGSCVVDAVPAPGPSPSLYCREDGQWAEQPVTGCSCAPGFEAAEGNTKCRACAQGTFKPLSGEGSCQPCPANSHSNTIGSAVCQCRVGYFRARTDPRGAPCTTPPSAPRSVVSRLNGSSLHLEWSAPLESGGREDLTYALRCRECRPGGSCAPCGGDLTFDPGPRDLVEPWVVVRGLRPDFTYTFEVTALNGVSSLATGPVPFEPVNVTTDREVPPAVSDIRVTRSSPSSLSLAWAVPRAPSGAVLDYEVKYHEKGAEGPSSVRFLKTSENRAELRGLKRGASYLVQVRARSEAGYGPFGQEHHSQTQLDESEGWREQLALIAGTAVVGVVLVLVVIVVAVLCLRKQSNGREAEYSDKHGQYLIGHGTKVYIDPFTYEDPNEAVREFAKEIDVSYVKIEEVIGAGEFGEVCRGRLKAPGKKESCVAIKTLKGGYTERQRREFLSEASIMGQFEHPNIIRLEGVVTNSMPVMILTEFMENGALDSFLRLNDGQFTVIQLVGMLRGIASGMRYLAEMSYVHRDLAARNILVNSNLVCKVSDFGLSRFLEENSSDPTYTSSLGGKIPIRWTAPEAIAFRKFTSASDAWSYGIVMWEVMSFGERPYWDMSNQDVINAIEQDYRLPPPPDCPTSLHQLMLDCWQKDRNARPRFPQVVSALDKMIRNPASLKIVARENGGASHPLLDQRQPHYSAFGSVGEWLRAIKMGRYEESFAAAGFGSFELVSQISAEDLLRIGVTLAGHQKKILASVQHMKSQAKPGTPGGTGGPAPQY

[7] = molecular target: High affinity nerve growth factor receptor (Homo sapiens) (UniProt P04629); experiment: Inhibition of human TRKA assessed as residual activity at 1 uM relative to control
Sequence of High affinity nerve growth factor receptor (Homo sapiens) (P04629 33-796 limits assumed): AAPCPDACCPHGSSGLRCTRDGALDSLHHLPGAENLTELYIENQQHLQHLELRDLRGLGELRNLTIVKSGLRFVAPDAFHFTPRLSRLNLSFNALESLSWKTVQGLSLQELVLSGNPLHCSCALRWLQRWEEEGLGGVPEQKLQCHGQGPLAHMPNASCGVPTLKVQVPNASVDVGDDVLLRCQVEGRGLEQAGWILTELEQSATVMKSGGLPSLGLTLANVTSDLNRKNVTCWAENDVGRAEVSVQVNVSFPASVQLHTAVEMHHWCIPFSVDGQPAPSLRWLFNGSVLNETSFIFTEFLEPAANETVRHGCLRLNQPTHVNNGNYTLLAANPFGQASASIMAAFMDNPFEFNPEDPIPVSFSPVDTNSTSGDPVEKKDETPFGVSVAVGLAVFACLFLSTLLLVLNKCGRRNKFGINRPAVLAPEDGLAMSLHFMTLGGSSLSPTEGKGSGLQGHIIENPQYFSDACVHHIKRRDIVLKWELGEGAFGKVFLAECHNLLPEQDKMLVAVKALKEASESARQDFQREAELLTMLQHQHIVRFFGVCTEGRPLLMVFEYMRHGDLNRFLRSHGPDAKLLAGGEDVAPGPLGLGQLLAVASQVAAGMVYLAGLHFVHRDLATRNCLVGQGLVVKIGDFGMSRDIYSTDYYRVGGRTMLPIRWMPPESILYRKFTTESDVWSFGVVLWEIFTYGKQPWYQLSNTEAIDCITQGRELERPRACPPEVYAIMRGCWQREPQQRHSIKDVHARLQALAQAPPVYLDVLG

[8] = molecular target: T2, cGMP-dependent protein kinase 1 (Homo sapiens) (UniProt Q13976); experiment: Inhibition of human PKG1alpha assessed as residual activity at 1 uM relative to control
T2 sequence (whole entry): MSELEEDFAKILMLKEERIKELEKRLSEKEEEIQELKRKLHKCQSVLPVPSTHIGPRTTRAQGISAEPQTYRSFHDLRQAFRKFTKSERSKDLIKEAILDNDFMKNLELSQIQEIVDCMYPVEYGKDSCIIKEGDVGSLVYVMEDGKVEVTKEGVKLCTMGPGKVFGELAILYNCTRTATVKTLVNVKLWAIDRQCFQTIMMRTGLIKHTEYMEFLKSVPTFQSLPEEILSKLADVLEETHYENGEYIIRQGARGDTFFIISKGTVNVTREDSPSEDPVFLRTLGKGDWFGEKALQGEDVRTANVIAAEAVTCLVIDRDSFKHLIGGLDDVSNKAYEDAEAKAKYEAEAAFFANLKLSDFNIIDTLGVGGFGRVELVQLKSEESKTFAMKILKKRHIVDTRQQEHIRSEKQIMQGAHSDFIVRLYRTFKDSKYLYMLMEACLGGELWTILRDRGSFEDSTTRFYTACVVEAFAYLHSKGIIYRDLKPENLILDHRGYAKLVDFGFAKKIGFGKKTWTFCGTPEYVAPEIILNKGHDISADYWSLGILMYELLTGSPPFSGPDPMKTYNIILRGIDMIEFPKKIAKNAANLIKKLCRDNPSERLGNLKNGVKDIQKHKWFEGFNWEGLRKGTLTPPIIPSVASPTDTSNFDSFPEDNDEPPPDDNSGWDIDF

[9] = system: Proto-oncogene tyrosine-protein kinase receptor Ret (Homo sapiens), P07949 [V804M]; experiment: Inhibition of human RET V804M mutant assessed as residual activity at 1 uM relative to control
Sequence of Proto-oncogene tyrosine-protein kinase receptor Ret (Homo sapiens), P07949 [V804M] (P07949 whole entry V804M): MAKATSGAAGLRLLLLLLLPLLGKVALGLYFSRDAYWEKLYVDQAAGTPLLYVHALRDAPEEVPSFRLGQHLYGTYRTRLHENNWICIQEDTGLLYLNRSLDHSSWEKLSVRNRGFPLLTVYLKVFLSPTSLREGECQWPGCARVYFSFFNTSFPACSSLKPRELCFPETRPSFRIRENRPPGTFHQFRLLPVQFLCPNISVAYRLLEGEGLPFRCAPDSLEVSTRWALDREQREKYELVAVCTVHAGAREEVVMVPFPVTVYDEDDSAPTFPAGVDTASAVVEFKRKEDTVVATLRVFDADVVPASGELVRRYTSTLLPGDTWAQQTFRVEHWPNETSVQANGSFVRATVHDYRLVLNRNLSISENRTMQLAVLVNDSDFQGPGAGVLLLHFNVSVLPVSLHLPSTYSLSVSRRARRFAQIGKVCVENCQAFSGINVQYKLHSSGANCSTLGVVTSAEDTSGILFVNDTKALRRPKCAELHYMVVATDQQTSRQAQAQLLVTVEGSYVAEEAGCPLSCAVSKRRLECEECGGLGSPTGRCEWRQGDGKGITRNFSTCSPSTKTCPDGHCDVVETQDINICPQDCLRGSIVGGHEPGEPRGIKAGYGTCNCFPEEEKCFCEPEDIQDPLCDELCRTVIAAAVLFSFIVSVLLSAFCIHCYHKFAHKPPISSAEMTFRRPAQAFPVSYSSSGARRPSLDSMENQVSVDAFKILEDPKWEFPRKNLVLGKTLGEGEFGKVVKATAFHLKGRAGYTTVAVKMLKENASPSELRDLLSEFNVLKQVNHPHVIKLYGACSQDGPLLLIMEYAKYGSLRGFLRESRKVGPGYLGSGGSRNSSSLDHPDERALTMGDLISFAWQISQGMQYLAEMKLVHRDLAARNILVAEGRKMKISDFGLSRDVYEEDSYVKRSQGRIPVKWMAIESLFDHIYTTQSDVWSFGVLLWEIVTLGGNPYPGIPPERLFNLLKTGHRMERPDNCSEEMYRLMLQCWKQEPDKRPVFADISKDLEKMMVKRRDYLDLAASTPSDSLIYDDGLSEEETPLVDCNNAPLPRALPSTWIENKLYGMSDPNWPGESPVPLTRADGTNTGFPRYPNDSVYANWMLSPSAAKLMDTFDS

[10] = molecular target: MAP kinase-interacting serine/threonine-protein kinase 2 (Homo sapiens) (UniProt Q9HBH9); experiment: Inhibition of human MNK2 assessed as residual activity at 1 uM relative to control
Sequence of MAP kinase-interacting serine/threonine-protein kinase 2 (Homo sapiens) (Q9HBH9 whole entry, looked up): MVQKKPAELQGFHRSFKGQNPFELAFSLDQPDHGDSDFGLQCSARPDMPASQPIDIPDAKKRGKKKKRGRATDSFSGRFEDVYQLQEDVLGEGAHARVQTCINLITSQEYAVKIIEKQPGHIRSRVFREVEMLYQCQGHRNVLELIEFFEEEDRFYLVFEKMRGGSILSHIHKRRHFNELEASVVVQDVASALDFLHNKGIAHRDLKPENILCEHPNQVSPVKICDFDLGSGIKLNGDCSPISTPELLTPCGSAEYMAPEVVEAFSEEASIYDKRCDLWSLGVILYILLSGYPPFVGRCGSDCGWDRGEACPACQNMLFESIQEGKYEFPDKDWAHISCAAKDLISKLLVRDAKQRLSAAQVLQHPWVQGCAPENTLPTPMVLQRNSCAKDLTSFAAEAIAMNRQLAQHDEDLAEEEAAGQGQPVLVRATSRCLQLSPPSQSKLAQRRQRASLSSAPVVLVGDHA

[11] = molecular target: Cyclin-dependent kinase 2 (Homo sapiens, UniProt P24941); experiment: Inhibition of CDK2 (unknown origin)
[12] = molecular target: Fibroblast growth factor receptor 4 (Homo sapiens) (UniProt P22455); experiment: Inhibition of human FGFR4 assessed as residual activity at 1 uM relative to control
[13] = molecular target: RAF proto-oncogene serine/threonine-protein kinase (Homo sapiens) (UniProt P04049); experiment: Inhibition of human c-RAF assessed as residual activity at 1 uM relative to control
Sequence of RAF proto-oncogene serine/threonine-protein kinase (Homo sapiens) (P04049 whole entry): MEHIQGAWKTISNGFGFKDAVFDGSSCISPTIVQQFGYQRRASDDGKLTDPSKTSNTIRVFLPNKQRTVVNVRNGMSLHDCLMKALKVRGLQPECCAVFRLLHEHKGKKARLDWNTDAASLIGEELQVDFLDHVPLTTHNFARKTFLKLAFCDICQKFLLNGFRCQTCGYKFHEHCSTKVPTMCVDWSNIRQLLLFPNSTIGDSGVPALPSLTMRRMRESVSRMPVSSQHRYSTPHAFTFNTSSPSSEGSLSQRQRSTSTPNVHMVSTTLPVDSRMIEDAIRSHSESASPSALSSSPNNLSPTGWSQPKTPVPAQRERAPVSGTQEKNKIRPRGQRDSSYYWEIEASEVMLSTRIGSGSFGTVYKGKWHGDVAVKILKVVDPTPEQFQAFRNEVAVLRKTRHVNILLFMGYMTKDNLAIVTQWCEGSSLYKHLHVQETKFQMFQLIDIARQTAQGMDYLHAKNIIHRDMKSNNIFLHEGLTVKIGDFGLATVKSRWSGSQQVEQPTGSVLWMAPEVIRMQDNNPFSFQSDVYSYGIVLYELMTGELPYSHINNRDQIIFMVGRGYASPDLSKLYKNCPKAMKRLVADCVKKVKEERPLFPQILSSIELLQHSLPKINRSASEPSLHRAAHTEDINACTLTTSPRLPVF

[14] = molecular target: T3, Serine/threonine-protein kinase Chk1 (Homo sapiens) (UniProt O14757); experiment: Inhibition of human CHK1 assessed as residual activity at 1 uM relative to control
T3 sequence (whole entry): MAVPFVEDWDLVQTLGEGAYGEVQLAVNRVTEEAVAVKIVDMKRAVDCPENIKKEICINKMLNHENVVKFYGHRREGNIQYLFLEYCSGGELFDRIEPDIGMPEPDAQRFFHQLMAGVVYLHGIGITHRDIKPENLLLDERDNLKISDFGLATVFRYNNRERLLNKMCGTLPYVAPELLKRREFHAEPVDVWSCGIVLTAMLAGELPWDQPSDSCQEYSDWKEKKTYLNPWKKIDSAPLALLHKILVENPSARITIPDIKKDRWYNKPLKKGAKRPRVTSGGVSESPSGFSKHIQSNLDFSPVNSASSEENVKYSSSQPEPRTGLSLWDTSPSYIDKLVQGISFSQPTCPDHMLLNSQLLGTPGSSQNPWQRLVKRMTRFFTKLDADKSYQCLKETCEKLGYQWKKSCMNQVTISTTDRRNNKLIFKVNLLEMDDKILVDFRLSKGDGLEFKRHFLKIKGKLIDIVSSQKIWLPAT

| Activity [1] [%] | Activity [2] [%] | Activity [3] [%] | Activity [4] [%] | Activity [5] [%] | Activity [6] [%] | Activity [7] [%] | Activity [8] [%] | Activity [9] [%] | Activity [10] [%] | pIC50 [11] | Activity [12] [%] | Activity [13] [%] | Activity [14] [%] | SMILES |
| --- | --- | --- | --- | --- | --- | --- | --- | --- | --- | --- | --- | --- | --- | --- |
| 108 | 89 | 84 | 50 | 62 | 74 | 59 | 69 | 15 | 4 | < 4.52 | 109 | 96 | 99 | COc1ccc(-c2nc3cc(-c4csc(C(=O)NCC(C)C)c4)cnc3[nH]2)cc1 |
| 105 | 92 | 80 | 47 | 79 | 95 | 67 | 67 | 9 | 1 | < 4.52 | 102 | 92 | 90 | COc1ccc(-c2nc3cc(-c4csc(C(=O)NCCC(C)C)c4)cnc3[nH]2)cc1 |
| 98 | 89 | 87 | 85 | 80 | 79 | 77 | 68 | 24 | 5 | < 4.52 | 109 | 108 | 103 | COc1ccc(-c2nc3cc(-c4csc(C(=O)NCC(C)(C)C)c4)cnc3[nH]2)cc1 |
